Results: patent publication US20210156846A1, “MICROFLUIDIC PLATFORM FOR TARGET AND BIOMARKER DISCOVERY FOR NON-ALCOHOLIC FATTY LIVER DISEASE” (Javelin Biotech, Inc., priority 2019, published 2021)

System: liver-adipose crosstalk MPSs
Test: Disease severity in NAFLD liver-adipose crosstalk MPS after treatment
Format: cell-based, human
Conditions: MHM-induced NAFLD liver-adipose crosstalk MPS; no data shown
Procedure: The disease modifying potential of targets is evaluated using one or both of large and small molecules and functional genomics tools, such as CRISPR. For example, large molecules can include ligand antagonists, Humira (adalimumab) blocks, and TNF-α. Healthy and NAFLD liver-adipose MPSs are established previously described. Following disease induction, the liver-adipose MPSs are treated with small molecules (alone and in combination) or CRISPR short guide RNAs (sgRNAs) that modulate the activity or expression of disease-relevant signaling pathways (e.g. CCR2-5, FXR, PPARγ, PPARβ/δ, and PPARγ) as previously described in relation to FIG. 4. The dosing regimen are optimized using the efficacy data generated using the liver and adipose spheroids previously described. The disease-modifying potential of the therapeutic treatment regimens in the liver-adipose crosstalk MPS 120 are determined using phenotypic (e.g., IR, steatosis, steatohepatitis, and fibrosis) and biomarker (apoptosis, hepatokine, adipokine, cytokine) readouts.
In the liver-adipose MPS 120, MHM induces a NAFLD phenotype in the liver (e.g., oxidative stress, steatosis, and fibrosis) and adipose tissue (e.g., steatosis) compared to MPSs cultured in healthy medium. Clinical biomarkers of NAFLD (e.g., AST, ALT, cytokeratin-18) are elevated in diseased systems compared to healthy systems. […]

SMILES | severity of the steatosis, fibrosis, and insulin resistance
CCCCOCCOc1ccc(-c2ccc3c(c2)/C=C(/C(=O)Nc2ccc([S@@+]([O-])Cc4cncn4CCC)cc2)CCCN3CC(C)C)cc1 [cenicriviroc] | reduce the severity
CSc1ccc(C(=O)/C=C/c2cc(C)c(OC(C)(C)C(=O)O)c(C)c2)cc1 [elafibranor] | reduce the severity
